Source: ChEMBL document CHEMBL3885881, “DrugMatrix”

Species: Rattus norvegicus
Assay: DrugMatrix - Regimen: Daily Repeat
Type: toxicity, organism-based, Sprague-Dawley
Set-up: regimen Daily Repeat, gender Male, age 6-8 weeks
Conditions: in vivo, po, route oral GAVAGE, […]; for ABSOLUTE BASOPHIL / BASOPHIL / ABSOLUTE EOSINOPHIL / ABSOLUTE LYMPHOCYTE / ABSOLUTE MONOCYTE / ABSOLUTE SEGMENTED NEUTROPHIL / EOSINOPHIL / ERYTHROCYTE COUNT / HEMATOCRIT / HEMOGLOBIN / LEUKOCYTE COUNT / LYMPHOCYTE / MEAN CORPUSCULAR HEMOGLOBIN / MEAN CORPUSCULAR HEMOGLOBIN CONCENTRATION / MEAN CORPUSCULAR VOLUME / MONOCYTE / NEUTROPHIL / NUCLEATED RED BLOOD CELLS / PLATELET COUNT: tissue Blood; for ALANINE AMINOTRANSFERASE / ALBUMIN / ALKALINE PHOSPHATASE / ASPARTATE AMINOTRANSFERASE / BLOOD UREA NITROGEN / CARBON DIOXIDE / CHLORIDE / CHOLESTEROL / CREATINE PHOSPHOKINASE / CREATININE / GLUCOSE / LACTATE DEHYDROGENASE / LIPASE / PHOSPHORUS / SODIUM / TOTAL BILIRUBIN / TOTAL PROTEIN / URIC ACID: tissue Plasma
[1] = 0 mg/kg, 72 h, dose level Control, time 3 day
[2] = 0 mg/kg, 120 h, dose level Control, time 5 day
[3] = 12 mg/kg, 72 h, dose level Low, time 3 day
[4] = 12 mg/kg, 120 h, dose level Low, time 5 day
[5] = 24 mg/kg, 72 h, dose level M1, time 3 day
[6] = 24 mg/kg, 120 h, dose level M1, time 5 day
[7] = 47 mg/kg, 72 h, dose level High, time 3 day
[8] = 47 mg/kg, 120 h, dose level High, time 5 day

## Nc1nc2nc[nH]c2c(=S)[nH]1 [THIOGUANINE]
[1]
  ABSOLUTE BASOPHIL: 0 CELLS/uL
  BASOPHIL: 0%
[2]
  ABSOLUTE BASOPHIL: 0 CELLS/uL
  BASOPHIL: 0%
[3]
  ABSOLUTE BASOPHIL: 0 CELLS/uL
  ABSOLUTE EOSINOPHIL: 0 CELLS/uL
  ABSOLUTE LYMPHOCYTE: 1995.33 CELLS/uL
  ABSOLUTE MONOCYTE: 24.33 CELLS/uL
  ABSOLUTE SEGMENTED NEUTROPHIL: 1147 CELLS/uL
  BASOPHIL: 0%
  EOSINOPHIL: 0%
  ERYTHROCYTE COUNT: 5.75 x10E6/uL
  HEMATOCRIT: 36.93%
  HEMOGLOBIN: 14.27 G/DL
  LEUKOCYTE COUNT: 3.17 x10E3/uL
  LYMPHOCYTE: 50.67%
  MEAN CORPUSCULAR HEMOGLOBIN: 24.87 pg
  MEAN CORPUSCULAR HEMOGLOBIN CONCENTRATION: 38.6 G/DL
  MEAN CORPUSCULAR VOLUME: 64.37 fL
  MONOCYTE: 0.67%
  NEUTROPHIL: 48.67%
  NUCLEATED RED BLOOD CELLS: 0 /100WBC
  PLATELET COUNT: 1202 x10E3/uL
  ALANINE AMINOTRANSFERASE: 56.33 u/L
  ALBUMIN: 4.67 G/DL
  ALKALINE PHOSPHATASE: 631.67 u/L
  ASPARTATE AMINOTRANSFERASE: 116 u/L
  BLOOD UREA NITROGEN: 14.67 mg/dL
  CARBON DIOXIDE: 23 mmol/L
  CHLORIDE: 98.67 MEQ/L
  CHOLESTEROL: 58 mg/dL
  CREATINE PHOSPHOKINASE: 539.33 u/L
  CREATININE: 0.12 mg/dL
  GLUCOSE: 318 mg/dL
  LACTATE DEHYDROGENASE: 172 u/L
  LIPASE: 11.33 u/L
  PHOSPHORUS: 9.8 mg/dL
  SODIUM: 141.63 MEQ/L
  TOTAL BILIRUBIN: 0.17 mg/dL
  TOTAL PROTEIN: 6.73 G/DL
  URIC ACID: 1.43 mg/dL
[4]
  ABSOLUTE BASOPHIL: 0 CELLS/uL
  ABSOLUTE EOSINOPHIL: 52 CELLS/uL
  ABSOLUTE LYMPHOCYTE: 778 CELLS/uL
  ABSOLUTE MONOCYTE: 212 CELLS/uL
  ABSOLUTE SEGMENTED NEUTROPHIL: 8758 CELLS/uL
  BASOPHIL: 0%
  EOSINOPHIL: 0.67%
  ERYTHROCYTE COUNT: 4.29 x10E6/uL
  HEMATOCRIT: 27.5%
  HEMOGLOBIN: 11 G/DL
  LEUKOCYTE COUNT: 9.8 x10E3/uL
  LYMPHOCYTE: 8.33%
  MEAN CORPUSCULAR HEMOGLOBIN: 25.97 pg
  MEAN CORPUSCULAR HEMOGLOBIN CONCENTRATION: 40.5 G/DL
  MEAN CORPUSCULAR VOLUME: 64.23 fL
  MONOCYTE: 2%
  NEUTROPHIL: 89%
  NUCLEATED RED BLOOD CELLS: 0 /100WBC
  PLATELET COUNT: 1171.33 x10E3/uL
  ALANINE AMINOTRANSFERASE: 335.67 u/L
  ALBUMIN: 4.13 G/DL
  ALKALINE PHOSPHATASE: 261.67 u/L
  ASPARTATE AMINOTRANSFERASE: 551.67 u/L
  BLOOD UREA NITROGEN: 16.67 mg/dL
  CARBON DIOXIDE: 17.67 mmol/L
  CHLORIDE: 101 MEQ/L
  CHOLESTEROL: 60.33 mg/dL
  CREATINE PHOSPHOKINASE: 1296 u/L
  CREATININE: 0.11 mg/dL
  GLUCOSE: 204.67 mg/dL
  LACTATE DEHYDROGENASE: 625 u/L
  LIPASE: 9.67 u/L
  PHOSPHORUS: 13.37 mg/dL
  SODIUM: 141.53 MEQ/L
  TOTAL BILIRUBIN: 0.23 mg/dL
  TOTAL PROTEIN: 6.1 G/DL
  URIC ACID: 2.83 mg/dL
[5]
  ABSOLUTE BASOPHIL: 0 CELLS/uL
  ABSOLUTE EOSINOPHIL: 0 CELLS/uL
  ABSOLUTE MONOCYTE: 0 CELLS/uL
  BASOPHIL: 0%
  EOSINOPHIL: 0%
  MONOCYTE: 0%
[6]
  ABSOLUTE BASOPHIL: 0 CELLS/uL
  ABSOLUTE EOSINOPHIL: 46.33 CELLS/uL
  ABSOLUTE LYMPHOCYTE: 7006.33 CELLS/uL
  ABSOLUTE MONOCYTE: 30 CELLS/uL
  ABSOLUTE SEGMENTED NEUTROPHIL: 550.67 CELLS/uL
  BASOPHIL: 0%
  EOSINOPHIL: 0.67%
  ERYTHROCYTE COUNT: 5.49 x10E6/uL
  HEMATOCRIT: 33.33%
  HEMOGLOBIN: 13.27 G/DL
  LEUKOCYTE COUNT: 7.63 x10E3/uL
  LYMPHOCYTE: 91.67%
  MEAN CORPUSCULAR HEMOGLOBIN: 24.17 pg
  MEAN CORPUSCULAR HEMOGLOBIN CONCENTRATION: 39.8 G/DL
  MEAN CORPUSCULAR VOLUME: 60.83 fL
  MONOCYTE: 0.33%
  NEUTROPHIL: 7.33%
  NUCLEATED RED BLOOD CELLS: 0 /100WBC
  PLATELET COUNT: 1721.33 x10E3/uL
  ALANINE AMINOTRANSFERASE: 38.67 u/L
  ALBUMIN: 4.13 G/DL
  ALKALINE PHOSPHATASE: 266.67 u/L
  ASPARTATE AMINOTRANSFERASE: 89.33 u/L
  BLOOD UREA NITROGEN: 11 mg/dL
  CARBON DIOXIDE: 25 mmol/L
  CHLORIDE: 104.67 MEQ/L
  CHOLESTEROL: 66 mg/dL
  CREATINE PHOSPHOKINASE: 417.33 u/L
  CREATININE: 0.23 mg/dL
  GLUCOSE: 127.67 mg/dL
  LACTATE DEHYDROGENASE: 349 u/L
  LIPASE: 9.67 u/L
  PHOSPHORUS: 10.33 mg/dL
  SODIUM: 151.33 MEQ/L
  TOTAL BILIRUBIN: 0.33 mg/dL
  TOTAL PROTEIN: 5.97 G/DL
  URIC ACID: 1.17 mg/dL
[7]
  ABSOLUTE BASOPHIL: 0 CELLS/uL
  ABSOLUTE EOSINOPHIL: 53.33 CELLS/uL
  ABSOLUTE LYMPHOCYTE: 4257 CELLS/uL
  ABSOLUTE MONOCYTE: 26.67 CELLS/uL
  ABSOLUTE SEGMENTED NEUTROPHIL: 4229.67 CELLS/uL
  BASOPHIL: 0%
  EOSINOPHIL: 0.67%
  ERYTHROCYTE COUNT: 7.05 x10E6/uL
  HEMATOCRIT: 43.87%
  HEMOGLOBIN: 17.33 G/DL
  LEUKOCYTE COUNT: 8.57 x10E3/uL
  LYMPHOCYTE: 50%
  MEAN CORPUSCULAR HEMOGLOBIN: 24.57 pg
  MEAN CORPUSCULAR HEMOGLOBIN CONCENTRATION: 39.5 G/DL
  MEAN CORPUSCULAR VOLUME: 62.23 fL
  MONOCYTE: 0.33%
  NEUTROPHIL: 49%
  NUCLEATED RED BLOOD CELLS: 0 /100WBC
  PLATELET COUNT: 1024.33 x10E3/uL
  ALANINE AMINOTRANSFERASE: 35.67 u/L
  ALBUMIN: 3.03 G/DL
  ALKALINE PHOSPHATASE: 125 u/L
  ASPARTATE AMINOTRANSFERASE: 152.67 u/L
  BLOOD UREA NITROGEN: 21 mg/dL
  CARBON DIOXIDE: 16 mmol/L
  CHLORIDE: 97 MEQ/L
  CHOLESTEROL: 46.67 mg/dL
  CREATINE PHOSPHOKINASE: 4333 u/L
  CREATININE: 0.17 mg/dL
  GLUCOSE: 263.33 mg/dL
  LACTATE DEHYDROGENASE: 399 u/L
  LIPASE: 23.33 u/L
  PHOSPHORUS: 14.77 mg/dL
  SODIUM: 139.73 MEQ/L
  TOTAL BILIRUBIN: 0.17 mg/dL
  TOTAL PROTEIN: 4.33 G/DL
  URIC ACID: 3.1 mg/dL
[8]
  ABSOLUTE BASOPHIL: 0 CELLS/uL
  ABSOLUTE EOSINOPHIL: 0 CELLS/uL
  ABSOLUTE LYMPHOCYTE: 1200 CELLS/uL
  ABSOLUTE MONOCYTE: 72 CELLS/uL
  ABSOLUTE SEGMENTED NEUTROPHIL: 1128 CELLS/uL
  BASOPHIL: 0%
  EOSINOPHIL: 0%
  ERYTHROCYTE COUNT: 6.48 x10E6/uL
  HEMATOCRIT: 41.1%
  HEMOGLOBIN: 15.9 G/DL
  LEUKOCYTE COUNT: 2.4 x10E3/uL
  LYMPHOCYTE: 50%
  MEAN CORPUSCULAR HEMOGLOBIN: 24.5 pg
  MEAN CORPUSCULAR HEMOGLOBIN CONCENTRATION: 38.7 G/DL
  MEAN CORPUSCULAR VOLUME: 63.5 fL
  MONOCYTE: 3%
  NEUTROPHIL: 47%
  NUCLEATED RED BLOOD CELLS: 0 /100WBC
  PLATELET COUNT: 877 x10E3/uL
  ALANINE AMINOTRANSFERASE: 127 u/L
  ALBUMIN: 3.5 G/DL
  ALKALINE PHOSPHATASE: 205 u/L
  ASPARTATE AMINOTRANSFERASE: 290 u/L
  BLOOD UREA NITROGEN: 35 mg/dL
  CARBON DIOXIDE: 25 mmol/L
  CHLORIDE: 100 MEQ/L
  CHOLESTEROL: 56 mg/dL
  CREATINE PHOSPHOKINASE: 284 u/L
  CREATININE: 0.1 mg/dL
  GLUCOSE: 211 mg/dL
  LACTATE DEHYDROGENASE: 156 u/L
  LIPASE: 6 u/L
  PHOSPHORUS: 9.3 mg/dL
  SODIUM: 141.5 MEQ/L
  TOTAL BILIRUBIN: 0.2 mg/dL
  TOTAL PROTEIN: 6.1 G/DL
  URIC ACID: 1.5 mg/dL
